We go through 20 compounds from ChEMBL document CHEMBL1138637, “Discovery of potent pyrrolidone-based HIV-1 protease inhibitors with enhanced drug-like properties” (Bioorg Med Chem Lett, 2004).

Molecules are shown by their SMILES.

One test has as its target T1, Human immunodeficiency virus type 1 protease (Human immunodeficiency virus 1, UniProt Q72874). Briefly: Potency to inhibit HIV-1 protease.
On to `N#CCOc1cccc(C[C@H]2C[C@H](Cc3ccccc3)N(C[C@@H](O)C[C@@H](Cc3ccccc3)C(=O)NC3c4ccccc4C[C@H]3O)C2=O)c1` (stereo not given in full), for which the affinity, expressed as Ki, was 0.08 nM. In the case of `O=C(NC1c2ccccc2C[C@H]1O)[C@H](Cc1ccccc1)C[C@H](O)CN1C(=O)C(Cc2cccnc2)C[C@@H]1Cc1ccccc1` (single isomer, unassigned; diastereomer 2), the Ki – broadly, a measure of affinity in units of concentration, obtained from inhibition or displacement – was 14 nM.

In turn, `O=C(NC1c2ccccc2C[C@H]1O)[C@H](Cc1ccccc1)C[C@H](O)CN1C(=O)C(Cc2ccncc2)C[C@@H]1Cc1ccccc1` (stereo not given in full) returned a Ki of 0.31 nM. Still for that read-out and setting: to `Nc1cccc(CC2C[C@H](Cc3ccccc3)N(C[C@@H](O)C[C@@H](Cc3ccccc3)C(=O)NC3c4ccccc4C[C@H]3O)C2=O)c1` (single isomer, unassigned; diastereomer 1) belongs 0.1 nM; to `NC(=O)c1cccc(C[C@H]2C[C@H](Cc3ccccc3)N(C[C@@H](O)C[C@@H](Cc3ccc(OCCO)cc3)C(=O)N[C@@H]3c4ccccc4C[C@H]3O)C2=O)c1`, 0.05 nM. Same read-out and setting: the figure for `NC(=O)Cc1cccc(C[C@H]2C[C@H](Cc3ccccc3)N(C[C@@H](O)C[C@@H](Cc3ccccc3)C(=O)NC3c4ccccc4C[C@H]3O)C2=O)c1` (stereo not given in full) is 0.09 nM; for `CCOC(=O)CNC(=O)Nc1cccc(C[C@H]2C[C@H](Cc3ccccc3)N(C[C@@H](O)C[C@@H](Cc3ccccc3)C(=O)N[C@@H]3c4ccccc4C[C@H]3O)C2=O)c1` it is 0.1 nM; for `NC(=O)c1cccc(C[C@H]2C[C@H](Cc3ccccc3)N(C[C@@H](O)C[C@@H](Cc3ccccc3)C(=O)N[C@@H]3c4ccccc4C[C@H]3O)C2=O)c1` it is 0.1 nM. Still for that read-out and setting: the figure for `CCNC(=O)Nc1cccc(C[C@H]2C[C@H](Cc3ccccc3)N(C[C@@H](O)C[C@@H](Cc3ccccc3)C(=O)NC3c4ccccc4C[C@H]3O)C2=O)c1` (stereo not given in full) is 0.2 nM; for `O=C(NCCN1CCOCC1)c1cccc(C[C@H]2C[C@H](Cc3ccccc3)N(C[C@@H](O)C[C@@H](Cc3ccccc3)C(=O)N[C@@H]3c4ccccc4C[C@H]3O)C2=O)c1` it is 0.15 nM; for `C=CC[C@H]1C[C@H](Cc2ccccc2)N(C[C@@H](O)C[C@@H](Cc2ccccc2)C(=O)NC2c3ccccc3C[C@H]2O)C1=O` (stereo not given in full) it is 0.45 nM. `O=C(NC1c2ccccc2C[C@H]1O)[C@H](Cc1ccccc1)C[C@H](O)CN1C(=O)C(Cc2cccnc2)C[C@@H]1Cc1ccccc1` (stereo in doubt): the affinity, expressed as Ki, was 0.17 nM. The compound `O=C(NCCOCCO)c1cccc(C[C@H]2C[C@H](Cc3ccccc3)N(C[C@@H](O)C[C@@H](Cc3ccccc3)C(=O)N[C@@H]3c4ccccc4C[C@H]3O)C2=O)c1` returned a Ki of 0.24 nM. Still for that read-out and setting: the figure for `N#Cc1cccc(CC2C[C@H](Cc3ccccc3)N(C[C@@H](O)C[C@@H](Cc3ccccc3)C(=O)NC3c4ccccc4C[C@H]3O)C2=O)c1` (single isomer, unassigned; diastereomer 1) is 0.05 nM; for `N#Cc1ccc(CC2C[C@H](Cc3ccccc3)N(C[C@@H](O)C[C@@H](Cc3ccccc3)C(=O)NC3c4ccccc4C[C@H]3O)C2=O)cc1` (stereo not given in full) it is 0.34 nM; for `O=C(NC1c2ccccc2C[C@H]1O)[C@H](Cc1ccccc1)C[C@H](O)CN1C(=O)C(Cc2cccc(O)c2)C[C@@H]1Cc1ccccc1` (single isomer, unassigned; diastereomer 1) it is 0.05 nM. The same measure, in the same setting: to `Nc1ccc(CC2C[C@H](Cc3ccccc3)N(C[C@@H](O)C[C@@H](Cc3ccccc3)C(=O)NC3c4ccccc4C[C@H]3O)C2=O)cc1` (stereo not given in full) belongs 2.3 nM; to `COC(=O)c1cccc(CC2C[C@H](Cc3ccccc3)N(C[C@@H](O)C[C@@H](Cc3ccccc3)C(=O)NC3c4ccccc4C[C@H]3O)C2=O)c1` (single isomer, unassigned; diastereomer 1), 0.42 nM.

In a further test the target is T1, Human immunodeficiency virus type 1 protease. Briefly: Concentration required to in inhibit HIV-1 protease by 50%.
`C=CCC1OC[C@H](Cc2ccccc2)N(C[C@H](O)CN(CC2CCCC2)S(=O)(=O)c2ccc(OC)cc2)C1=O` (stereo not given in full): it took 2 nM to reach half-maximal inhibition (IC50). Same read-out and setting: to `COc1ccc(S(=O)(=O)N(CC2CCCC2)C[C@@H](O)CN2C(=O)C(Cc3ccccc3)OC[C@@H]2Cc2ccccc2)cc1` (stereo not given in full) belongs 30 nM.
